Experiments:
[1] = biological target: T1, ArcT (Azoarcus olearius, UniProt A1K222); test: MALDI-MS ATP-pyrophosphate isotopic exchange; type: biochemical; conditions: MgCl2, pyrophosphate, 20 mM Tris pH 7.4
T1 construct: gene azo0260; full gene; CherryTag-His6 fusion cut off with TEV protease; E. coli BL21 (DE3) Star

[2] = biological target: T2, ArcB (Azoarcus olearius, UniProt A1KCI0); test: GC-MS product detection after MSTFA derivatization; type: biochemical; conditions: 1 mM substrate, 2 µg ArcB, 100 mM Tris pH 7.4, 37 °C, 10 or 60 min
T2 construct: gene azo3920; full gene; CherryTag-His6 fusion cut off with TEV protease; E. coli BL21 (DE3) Star
T2 sequence (A1KCI0 entry or part of it): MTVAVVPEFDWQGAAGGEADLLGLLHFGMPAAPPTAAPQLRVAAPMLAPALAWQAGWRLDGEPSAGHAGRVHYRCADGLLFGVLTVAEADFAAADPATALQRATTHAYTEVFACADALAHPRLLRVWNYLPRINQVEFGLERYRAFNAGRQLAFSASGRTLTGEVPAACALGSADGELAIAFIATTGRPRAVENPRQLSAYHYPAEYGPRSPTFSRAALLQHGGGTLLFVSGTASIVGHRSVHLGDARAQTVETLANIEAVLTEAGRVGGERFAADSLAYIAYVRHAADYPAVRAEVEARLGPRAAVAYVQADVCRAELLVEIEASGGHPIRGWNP

T1 sequence (A1K222 entry or part of it): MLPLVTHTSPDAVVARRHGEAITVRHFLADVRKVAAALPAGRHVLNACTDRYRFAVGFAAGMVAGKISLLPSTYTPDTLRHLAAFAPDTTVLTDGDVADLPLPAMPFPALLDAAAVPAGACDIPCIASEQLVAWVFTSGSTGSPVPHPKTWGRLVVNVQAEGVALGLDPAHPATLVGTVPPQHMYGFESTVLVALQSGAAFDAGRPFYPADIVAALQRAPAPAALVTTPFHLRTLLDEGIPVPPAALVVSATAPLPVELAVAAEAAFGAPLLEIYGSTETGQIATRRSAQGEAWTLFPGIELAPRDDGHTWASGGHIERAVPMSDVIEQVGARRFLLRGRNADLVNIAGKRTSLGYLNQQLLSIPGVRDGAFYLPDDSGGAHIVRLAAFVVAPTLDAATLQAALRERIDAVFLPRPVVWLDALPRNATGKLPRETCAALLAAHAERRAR

With Nc1ncnc2c1ncn2[C@@H]1O[C@H](COP(=O)(O)OP(=O)(O)OP(=O)(O)O)[C@@H](O)[C@H]1O [[γ-^18O4]-ATP] the “MALDI-MS ATP-pyrophosphate isotopic exchange” value ([1]; 3-HBA as co-substrate, labelled compound) was “MALDI-MS analysis showed ATP-label exchange in assays with 3-HBA”.
In the case of O=C(O)c1cccc(O)c1 [3-hydroxybenzoic acid], the “GC-MS product detection after MSTFA derivatization” value ([2]; formed from chorismic acid) was 3-HBA was only detectable in assays containing ArcB and the “MALDI-MS ATP-pyrophosphate isotopic exchange” value ([1]; adenylation, [γ-18O4]-ATP) was “MALDI-MS analysis showed ATP-label exchange in assays with 3-HBA”.
With C=C(O[C@@H]1C=C(C(=O)O)C=C[C@H]1O)C(=O)O [chorismic acid] the “GC-MS product detection after MSTFA derivatization” value [2] was 3-HBA was only detectable in assays containing ArcB.
